# Source: ChEMBL document CHEMBL5131494, “Phe19 modification of HDM2-p53 PPI inhibitors to alleviate CYP3A4 metabolism/mechanism-based inhibition liability” (Bioorg Med Chem Lett, 2022)
# Tests used:
# Cytochrome P450 3A4 [1] = biological target: T1, Cytochrome P450 3A4 (Homo sapiens, UniProt P08684); assay: Inhibition of CYP3A4 (unknown origin) using testosterone as substrate in presence of NADPH; format: ADME
# Cytochrome P450 3A4 [2] = biological target: T1, Cytochrome P450 3A4; assay: Inhibition of CYP3A4 (unknown origin) using testosterone as substrate pretreated with NADPH; format: ADME
# CYP3A4 = CYP3A4 (Homo sapiens, UniProt P08684); assay: Ratio of IC50 for CYP3A4 (unknown origin) co-incubated with NADPH to IC50 for CYP3A4 (unknown origin) pretreated with NADPH; conditions: read-out: Ratio IC50
# CYP3A4, sequence (P08684 whole entry): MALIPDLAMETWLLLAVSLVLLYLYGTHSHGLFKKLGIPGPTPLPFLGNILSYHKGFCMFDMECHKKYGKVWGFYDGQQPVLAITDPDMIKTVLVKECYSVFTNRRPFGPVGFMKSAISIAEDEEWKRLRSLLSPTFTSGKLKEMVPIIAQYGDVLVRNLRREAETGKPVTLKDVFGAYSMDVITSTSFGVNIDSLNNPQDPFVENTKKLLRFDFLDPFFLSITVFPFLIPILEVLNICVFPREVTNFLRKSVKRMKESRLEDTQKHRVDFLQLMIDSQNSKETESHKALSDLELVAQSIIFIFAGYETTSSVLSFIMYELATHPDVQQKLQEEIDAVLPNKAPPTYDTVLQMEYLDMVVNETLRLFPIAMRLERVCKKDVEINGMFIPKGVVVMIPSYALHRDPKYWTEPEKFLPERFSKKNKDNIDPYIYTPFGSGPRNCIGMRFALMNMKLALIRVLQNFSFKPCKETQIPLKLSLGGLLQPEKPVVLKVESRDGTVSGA
# [3] = biological target: Tumour suppressor p53/oncoprotein Mdm2 (Homo sapiens, UniProt Q00987); assay: Inhibition of HDM2-p53 (unknown origin) protein-protein interaction by fluorescence polarization peptide displacement assay
# Tumour suppressor p53/oncoprotein Mdm2, sequence (P04637 whole entry): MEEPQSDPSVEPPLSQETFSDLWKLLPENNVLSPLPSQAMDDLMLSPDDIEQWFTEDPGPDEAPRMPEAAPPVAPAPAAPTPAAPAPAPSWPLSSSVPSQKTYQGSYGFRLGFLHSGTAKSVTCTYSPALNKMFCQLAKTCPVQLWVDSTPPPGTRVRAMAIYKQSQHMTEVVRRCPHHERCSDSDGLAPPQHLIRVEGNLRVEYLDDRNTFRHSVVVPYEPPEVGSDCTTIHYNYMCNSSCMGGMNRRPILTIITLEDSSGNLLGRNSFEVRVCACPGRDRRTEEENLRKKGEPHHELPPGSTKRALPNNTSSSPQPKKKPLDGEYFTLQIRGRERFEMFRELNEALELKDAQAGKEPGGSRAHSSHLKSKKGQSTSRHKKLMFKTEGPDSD
# Tumour suppressor p53/oncoprotein Mdm2, sequence (Q00987 whole entry): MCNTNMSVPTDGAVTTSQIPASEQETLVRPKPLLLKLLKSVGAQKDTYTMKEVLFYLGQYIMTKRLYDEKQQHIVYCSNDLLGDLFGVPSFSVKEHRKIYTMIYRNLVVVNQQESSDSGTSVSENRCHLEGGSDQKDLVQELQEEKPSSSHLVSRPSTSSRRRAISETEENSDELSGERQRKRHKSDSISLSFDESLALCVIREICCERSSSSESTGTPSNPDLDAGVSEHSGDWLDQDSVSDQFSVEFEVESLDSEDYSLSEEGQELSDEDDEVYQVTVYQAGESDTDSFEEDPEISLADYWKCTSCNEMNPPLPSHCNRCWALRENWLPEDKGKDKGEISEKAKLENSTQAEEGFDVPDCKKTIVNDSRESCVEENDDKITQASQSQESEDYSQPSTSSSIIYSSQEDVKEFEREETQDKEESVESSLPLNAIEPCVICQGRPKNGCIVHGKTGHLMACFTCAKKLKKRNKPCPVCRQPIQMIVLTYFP
# T1 sequence (P08684 whole entry): as the sequence (P08684 whole entry) above
Compound,IC50 (Cytochrome P450 3A4 [1]) [nM],IC50 (Cytochrome P450 3A4 [2]) [nM],IC50 [3] [nM],IC50 shift (CYP3A4)
CCC[C@H]1N(C(=O)c2cnccc2C(F)(F)F)CCC[C@@]1(Oc1csc(C(F)(F)F)c1)C(=O)N1CCN(c2ccccc2OCCO)CC1,6600,300,15,
CCC[C@H]1N(C(=O)c2cccnc2)CCC[C@@]1(Oc1csc(C(F)(F)F)c1)C(=O)N1CCN(c2ccccc2OCCO)CC1,,,1770,
CCC[C@H]1N(C(=O)c2ccncc2C(F)(F)F)CCC[C@@]1(Oc1csc(C(F)(F)F)c1)C(=O)N1CCN(c2ccccc2OCCO)CC1,,,66,
CCC[C@H]1N(C(=O)c2c(C(F)(F)F)ccc[n+]2[O-])CCC[C@@]1(Oc1csc(C(F)(F)F)c1)C(=O)N1CCN(c2ccccc2OCCO)CC1,50000,1900,22,26
CCC[C@H]1N(C(=O)c2cc(F)ccc2C(F)(F)F)CCC[C@@]1(Oc1csc(C(F)(F)F)c1)C(=O)N1CCN(c2ccccc2OCCO)CC1,50000,600,34,90
CCC[C@H]1N(C(=O)c2c(N)cccc2C(F)(F)F)CCC[C@@]1(Oc1csc(C(F)(F)F)c1)C(=O)N1CCN(c2ccccc2OCCO)CC1,,,6800,
CCC[C@H]1N(C(=O)c2cccnc2C(F)(F)F)CCC[C@@]1(Oc1csc(C(F)(F)F)c1)C(=O)N1CCN(c2ccccc2OCCO)CC1,,,117,
CCC[C@H]1N(C(=O)c2c(C(F)(F)F)ccnc2OCCN(C)C)CCC[C@@]1(Oc1csc(C(F)(F)F)c1)C(=O)N1CCN(c2ccccc2OCCO)CC1,20000,2000,10,10
CCC[C@H]1N(C(=O)c2cnccc2C)CCC[C@@]1(Oc1csc(C(F)(F)F)c1)C(=O)N1CCN(c2ccccc2OCCO)CC1,6900,1200,34,6
CCC[C@H]1N(C(=O)c2c(F)cccc2C(F)(F)F)CCC[C@@]1(Oc1csc(C(F)(F)F)c1)C(=O)N1CCN(c2ccccc2OCCO)CC1,50000,400,65,126
CCC[C@H]1N(C(=O)c2cnccc2C(F)(F)F)CCC[C@@]1(Oc1csc(C(F)(F)F)c1)C(=O)N1CCN(c2ccccc2OC)CC1,10000,300,30,33
CCC[C@H]1N(C(=O)c2ncccc2C(F)(F)F)CCC[C@@]1(Oc1csc(C(F)(F)F)c1)C(=O)N1CCN(c2ccccc2OCCO)CC1,35100,200,7,160

# Further lines, with some results ahead:
IC50 (Cytochrome P450 3A4 [1]) [nM],IC50 (Cytochrome P450 3A4 [2]) [nM],IC50 [3] [nM],Compound,IC50 shift (CYP3A4)
20000,900,,CCC[C@H]1N(C(=O)c2cnccc2C(F)(F)F)CCC[C@@]1(Oc1csc(C(F)(F)F)c1)C(=O)N1CCN(c2ccccc2OCCCC(=O)O)CC1,23
50000,5700,28,C=CCOc1nccc(C(F)(F)F)c1C(=O)N1CCC[C@@](Oc2csc(C(F)(F)F)c2)(C(=O)N2CCN(c3ccccc3OCCO)CC2)[C@H]1CCC,9
50000,50000,11,CCC[C@H]1N(C(=O)c2c(C(F)(F)F)ccnc2O)CCC[C@@]1(Oc1csc(C(F)(F)F)c1)C(=O)N1CCN(c2ccccc2OCCCC(=O)O)CC1,1
50000,1500,103,CCC[C@H]1N(C(=O)c2c(C(F)(F)F)ccnc2OCCO)CCC[C@@]1(Oc1csc(C(F)(F)F)c1)C(=O)N1CCN(c2ccccc2OCCO)CC1,33
,,1000,C=CCNc1nccc(C(F)(F)F)c1C(=O)N1CCC[C@@](Oc2csc(C(F)(F)F)c2)(C(=O)N2CCN(c3ccccc3OCCO)CC2)[C@H]1CCC,
,,246,CCC[C@H]1N(C(=O)c2c(C(F)(F)F)ccnc2OCC(=O)NC)CCC[C@@]1(Oc1csc(C(F)(F)F)c1)C(=O)N1CCN(c2ccccc2OCCO)CC1,
30000,30000,44,CCC[C@H]1N(C(=O)c2c(C(F)(F)F)ccnc2O)CCC[C@@]1(Oc1csc(C(F)(F)F)c1)C(=O)N1CCN(c2ccccc2OCCO)CC1,1
20000,9200,32,CCC[C@H]1N(C(=O)c2c(C(F)(F)F)ccnc2O)CCC[C@@]1(Oc1csc(C(F)(F)F)c1)C(=O)N1CCN(c2ccccc2OC)CC1,2
20000,4400,25,CCC[C@H]1N(C(=O)c2c(C(F)(F)F)ccnc2OCC(=O)O)CCC[C@@]1(Oc1csc(C(F)(F)F)c1)C(=O)N1CCN(c2ccccc2OCCO)CC1,5
